# Values quoted from earlier work, collected in US9884129B2, “Release of agents from cells” (The Brigham and Women s Hospital, Inc., priority 2009, dated 2018).
# System: tumor
# Conditions: with neural stem cells modified to produce cytosine deaminase; systemic prodrug
structure (smiles),measurement,value
Nc1nc(=O)[nH]cc1F [5-fluorocytosine],reduction in tumor mass,80%
